Laboratory results: US20080269241A1, “BICYCLIC AMINOPROPYL TETRAHYDRO-PYRAZOLO-PYRIDINE MODULATORS OF CATHEPSIN S” (priority 2007, published 2008)

molecular target: T1, human cathepsin S (CatS) (Homo sapiens, UniProt P25774); test: Recombinant human cathepsin S (CatS) fluorogenic substrate inhibition assay; type: biochemical; conditions: recombinant human CatS, 10 μM Z-Valine-Valine-Arginine-AMC, pH 5.0; average of results obtained; read-out: CatS IC50
T1 construct: made in house; host or cells: baculovirus system (insect cells)
Protocol: Recombinant human cathepsin S (CatS) was expressed in the baculovirus system and purified in one step with a thiopropyl-sepharose column. […] The assay is run in 150 mM sodium acetate pH 5.0 containing 1.5 mM DTT and 150 mM NaCl. […] Measurements are taken every min for 20 min. The rate is calculated from the slope of the increase in fluorescence and the percent inhibition is calculated from this.

T1 sequence (P25774 115-331): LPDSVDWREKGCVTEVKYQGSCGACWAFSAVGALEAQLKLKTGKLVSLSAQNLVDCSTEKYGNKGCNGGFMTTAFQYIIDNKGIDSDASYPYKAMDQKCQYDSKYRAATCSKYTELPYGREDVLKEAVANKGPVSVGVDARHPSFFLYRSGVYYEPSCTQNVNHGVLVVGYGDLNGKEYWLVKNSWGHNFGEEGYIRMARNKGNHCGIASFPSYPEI

IC50	SMILES
0.6 µM	CN(C)c1ccc2c(n1)n(C1CCN(CC(O)Cn3nc(-c4ccc(C(F)(F)F)c(CN)c4)c4c3CCN(S(C)(=O)=O)C4)CC1)c(=O)n2C (stereo not shown) [Example 216, 3-(1-{3-[3-(3-Aminomethyl-4-trifluoromethyl-phenyl)-5-methanesulfonyl-4,5,6,7-tetrahydro-pyrazolo[4,3-c]pyridin-1-yl]-2-hydroxy-propyl}-piperidin-4-yl)-5-dimethylamino-1-methyl-1,3-dihydro-imidazo[4,5-b]pyridin-2-one]
0.6 µM	CS(=O)(=O)c1csc(C(=O)NCc2cc(-c3nn(CC(O)CN4CCC(N5CCCC5=O)CC4)c4c3CN(S(C)(=O)=O)CC4)ccc2C(F)(F)F)c1Cl (stereo not shown) [Example 217, 3-Chloro-4-methanesulfonyl-thiophene-2-carboxylic acid 5-(1-{2-hydroxy-3-[4-(2-oxo-pyrrolidin-1-yl)-piperidin-1-yl]-propyl}-5-methanesulfonyl-4,5,6,7-tetrahydro-1H-pyrazolo[4,3-c]pyridin-3-yl)-2-trifluoromethyl-benzylamide]
0.7 µM	CC1CCCN(CC(=O)NCc2cc(-c3nn(CCCN4CCC(N5CCCC5=O)CC4)c4c3CN(S(C)(=O)=O)CC4)ccc2C(F)(F)F)C1 (stereo not shown) [Example 223, N-[5-(5-Methanesulfonyl-1-{3-[4-(2-oxo-pyrrolidin-1-yl)-piperidin-1-yl]-propyl}-4,5,6,7-tetrahydro-1H-pyrazolo[4,3-c]pyridin-3-yl)-2-trifluoromethyl-benzyl]-2-(3-methyl-piperidin-1-yl)-acetamide]
0.76 µM	CS(=O)(=O)N1CCc2c(c(-c3ccc(Cl)c(NC(=O)c4ccc([N+](=O)[O-])cc4)c3)nn2CCCN2CCN(c3cccc(Cl)c3)CC2)C1 [Example 226, N-[2-Chloro-5-(1-{3-[4-(3-chloro-phenyl)-piperazin-1-yl]-propyl}-5-methanesulfonyl-4,5,6,7-tetrahydro-1H-pyrazolo[4,3-c]pyridin-3-yl)-phenyl]-4-nitro-benzamide]
0.76 µM	COc1ccc(C(=O)Nc2cc(-c3nn(CCCN4CCN(c5cccc(Cl)c5)CC4)c4c3CN(S(C)(=O)=O)CC4)ccc2Cl)cc1 [Example 228, N-[2-Chloro-5-(1-{3-[4-(3-chloro-phenyl)-piperazin-1-yl]-propyl}-5-methanesulfonyl-4,5,6,7-tetrahydro-1H-pyrazolo[4,3-c]pyridin-3-yl)-phenyl]-4-methoxy-benzamide]
0.78 µM	CCc1ccc(C(=O)Nc2cc(-c3nn(CCCN4CCN(c5cccc(Cl)c5)CC4)c4c3CN(S(C)(=O)=O)CC4)ccc2Cl)cc1 [Example 230, N-[2-Chloro-5-(1-{3-[4-(3-chloro-phenyl)-piperazin-1-yl]-propyl}-5-methanesulfonyl-4,5,6,7-tetrahydro-1H-pyrazolo[4,3-c]pyridin-3-yl)-phenyl]-4-ethyl-benzamide]
0.83 µM	CS(=O)(=O)N1CCc2c(c(-c3ccc(Cl)c(NC(=O)c4ccc(C(F)(F)F)cc4)c3)nn2CCCN2CCN(c3cccc(Cl)c3)CC2)C1 [Example 233, N-[2-Chloro-5-(1-{3-[4-(3-chloro-phenyl)-piperazin-1-yl]-propyl}-5-methanesulfonyl-4,5,6,7-tetrahydro-1H-pyrazolo[4,3-c]pyridin-3-yl)-phenyl]-4-trifluoromethyl-benzamide]
0.84 µM	CS(=O)(=O)N1CCc2c(c(-c3ccc(Cl)c(NC(=O)c4ccc(F)cc4)c3)nn2CCCN2CCN(c3cccc(Cl)c3)CC2)C1 [Example 234, N-[2-Chloro-5-(1-{3-[4-(3-chloro-phenyl)-piperazin-1-yl]-propyl}-5-methanesulfonyl-4,5,6,7-tetrahydro-1H-pyrazolo[4,3-c]pyridin-3-yl)-phenyl]-4-fluoro-benzamide]
5.3 µM	CN(C)CC(=O)NCc1cc(-c2nn(CC(O)CN3CCC(N4CCCC4)CC3)c3c2CN(S(C)(=O)=O)CC3)ccc1C(F)(F)F (stereo not shown) [Example 243, 2-Dimethylamino-N-(5-{1-[2-hydroxy-3-(4-pyrrolidin-1-yl-piperidin-1-yl)-propyl]-5-methanesulfonyl-4,5,6,7-tetrahydro-1H-pyrazolo[4,3-c]pyridin-3-yl}-2-trifluoromethyl-benzyl)-acetamide]
0.12 µM	CC(C)CC(=O)NCc1cc(-c2nn(CC(O)CN3CCC(N4CCCC4)CC3)c3c2CN(S(C)(=O)=O)CC3)ccc1C(F)(F)F (stereo not shown) [Example 248, N-(5-{1-[2-Hydroxy-3-(4-pyrrolidin-1-yl-piperidin-1-yl)-propyl]-5-methanesulfonyl-4,5,6,7-tetrahydro-1H-pyrazolo[4,3-c]pyridin-3-yl}-2-trifluoromethyl-benzyl)-3-methyl-butyramide]
0.14 µM	CC(C)CC(=O)NCc1cc(-c2nn(CC(O)CN3CCC(N4CCOC4=O)CC3)c3c2CN(S(C)(=O)=O)CC3)ccc1C(F)(F)F (stereo not shown) [Example 252, N-[5-(1-{2-Hydroxy-3-[4-(2-oxo-oxazolidin-3-yl)-piperidin-1-yl]-propyl}-5-methanesulfonyl-4,5,6,7-tetrahydro-1H-pyrazolo[4,3-c]pyridin-3-yl)-2-trifluoromethyl-benzyl]-3-methyl-butyramide]
0.09 µM	CC(C)CC(=O)NCc1cc(-c2nn(CC(O)CN3CCC(N4CC(O)CC4=O)CC3)c3c2CN(S(C)(=O)=O)CC3)ccc1C(F)(F)F (stereo not shown) [Example 253, N-[5-(1-{2-Hydroxy-3-[4-(4-hydroxy-2-oxo-pyrrolidin-1-yl)-piperidin-1-yl]-propyl}-5-methanesulfonyl-4,5,6,7-tetrahydro-1H-pyrazolo[4,3-c]pyridin-3-yl)-2-trifluoromethyl-benzyl]-3-methyl-butyramide]
0.12 µM	CC(C)CC(=O)NCc1cc(-c2nn(CC(O)CN3CCC(N4CCOCC4)CC3)c3c2CN(S(C)(=O)=O)CC3)ccc1C(F)(F)F (stereo not shown) [Example 254, N-(5-{1-[2-Hydroxy-3-(4-morpholin-4-yl-piperidin-1-yl)-propyl]-5-methanesulfonyl-4,5,6,7-tetrahydro-1H-pyrazolo[4,3-c]pyridin-3-yl}-2-trifluoromethyl-benzyl)-3-methyl-butyramide]
0.07 µM	CC(C)CC(=O)NCc1cc(-c2nn(CC(O)CN3CCC(c4nnnn4Cc4ccccc4)CC3)c3c2CN(S(C)(=O)=O)CC3)ccc1C(F)(F)F (stereo not shown) [Example 256, N-[5-(1-{3-[4-(1-Benzyl-1H-tetrazol-5-yl)-piperidin-1-yl]-2-hydroxy-propyl}-5-methanesulfonyl-4,5,6,7-tetrahydro-1H-pyrazolo[4,3-c]pyridin-3-yl)-2-trifluoromethyl-benzyl]-3-methyl-butyramide]
0.01 µM	CC(C)CC(=O)NCc1cc(-c2nn(CC(O)CN3CCC(c4ccccn4)CC3)c3c2CN(S(C)(=O)=O)CC3)ccc1C(F)(F)F (stereo not shown) [Example 257, N-(5-{1-[2-Hydroxy-3-(3′,4′,5′,6′-tetrahydro-2′H-[2,4′]bipyridinyl-1′-yl)-propyl]-5-methanesulfonyl-4,5,6,7-tetrahydro-1H-pyrazolo[4,3-c]pyridin-3-yl}-2-trifluoromethyl-benzyl)-3-methyl-butyramide]

SMILES	IC50
CC(C)CC(=O)NCc1cc(-c2nn(CC(O)CN3CCC(O)(c4ccccn4)CC3)c3c2CN(S(C)(=O)=O)CC3)ccc1C(F)(F)F (stereo not shown) [Example 258, N-(5-{1-[2-Hydroxy-3-(4′-hydroxy-3′,4′,5′,6′-tetrahydro-2′H-[2,4′]bipyridinyl-1′-yl)-propyl]-5-methanesulfonyl-4,5,6,7-tetrahydro-1H-pyrazolo[4,3-c]pyridin-3-yl}-2-trifluoromethyl-benzyl)-3-methyl-butyramide]	0.04 µM
